Test results taken from paper PMC7180948, “New Insights into 4-Anilinoquinazolines as Inhibitors of Cardiac Troponin I–Interacting Kinase (TNNi3K)” (Molecules, 2020).

What was measured:
[1] = molecular target: T1, MEK5 (Homo sapiens, UniProt Q13163); test: KINOMEscan at […], single concentration; format: binding
T1 construct: gene MAP2K5

[2] = molecular target: T2, ZAK (Homo sapiens, UniProt Q9NYL2); test: KINOMEscan at […], single concentration; format: binding
T2 construct: gene MAP3K20

[3] = molecular target: T3, RPS6KA5(Kin.Dom.2-C-terminal) (Homo sapiens, UniProt O75582); test: biochemical; parameters: KINOMEscan competition binding panel (Eurofins DiscoverX), single concentration, % inhibition; details: read-out: 7 at 1 µM % inhibition
T3 construct: Kin.Dom.2-C-terminal
Protocol: (§1) KinomeScan® Assay on 7 and 15 was performed as previously described by EuroFins DiscoverX [24]. GSK114 (7) and 15 were submitted for a KINOMEscan® assay to explore the selectivity profile across >400 human kinases at a compound concentration of 1 µM. […] GSK114 (7) is a narrow-spectrum TNNi3K inhibitor but has some potent off-targets including GAK which has been previously reported for this chemotype. […] If utilized together this set of compounds could be useful to investigate TNNi3K biology.

[4] = molecular target: T4, CDK4-cyclinD1 (Homo sapiens, UniProt P11802); test: biochemical; parameters: KINOMEscan competition binding panel (Eurofins DiscoverX), single concentration, % inhibition; details: read-out: 7 at 1 µM % inhibition
T4 construct: cyclinD1
Protocol: as §1

[5] = molecular target: INSRR (Homo sapiens, UniProt P14616); test: biochemical; parameters: KINOMEscan competition binding panel (Eurofins DiscoverX), single concentration, % inhibition; details: read-out: 7 at 1 µM % inhibition
Protocol: as §1

[6] = molecular target: CAMK2A (Homo sapiens, UniProt Q9UQM7); test: biochemical; parameters: KINOMEscan competition binding panel (Eurofins DiscoverX), single concentration, % inhibition; details: read-out: 7 at 1 µM % inhibition
Protocol: as §1

[7] = molecular target: T5, ABL1(M351T)-phosphorylated (Homo sapiens, UniProt P00519, M351T); test: biochemical; parameters: KINOMEscan competition binding panel (Eurofins DiscoverX), single concentration, % inhibition; details: read-out: 7 at 1 µM % inhibition
T5 construct: phosphorylated
Protocol: as §1

[8] = molecular target: T6, MLK2 (Homo sapiens, UniProt Q02779); test: biochemical; parameters: KINOMEscan competition binding panel (Eurofins DiscoverX), single concentration, % inhibition; details: read-out: 7 at 1 µM % inhibition
T6 construct: gene MAP3K10
Protocol: as §1

[9] = molecular target: PIK3CA(C420R) (Homo sapiens, UniProt P42336, C420R); test: biochemical; parameters: KINOMEscan competition binding panel (Eurofins DiscoverX), single concentration, % inhibition; details: read-out: 7 at 1 µM % inhibition
Protocol: as §1

[10] = molecular target: RET(M918T) (Homo sapiens, UniProt P07949, M918T); test: biochemical; parameters: KINOMEscan competition binding panel (Eurofins DiscoverX), single concentration, % inhibition; details: read-out: 7 at 1 µM % inhibition
Protocol: as §1

[11] = molecular target: T7, RPS6KA4(Kin.Dom.1-N-terminal) (Homo sapiens, UniProt O75676); test: biochemical; parameters: KINOMEscan competition binding panel (Eurofins DiscoverX), single concentration, % inhibition; details: read-out: 7 at 1 µM % inhibition
T7 construct: Kin.Dom.1-N-terminal
Protocol: as §1

[12] = molecular target: GSK3A (Homo sapiens, UniProt P49840); test: biochemical; parameters: KINOMEscan competition binding panel (Eurofins DiscoverX), single concentration, % inhibition; details: read-out: 7 at 1 µM % inhibition
Protocol: as §1

[13] = molecular target: T8, MKK7 (Homo sapiens, UniProt O14733); test: biochemical; parameters: KINOMEscan competition binding panel (Eurofins DiscoverX), single concentration, % inhibition; details: read-out: 7 at 1 µM % inhibition
T8 construct: gene MAP2K7
Protocol: as §1

[14] = molecular target: T9, PKAC-beta (Homo sapiens, UniProt P22694); test: biochemical; parameters: KINOMEscan competition binding panel (Eurofins DiscoverX), single concentration, % inhibition; details: read-out: 7 at 1 µM % inhibition
T9 construct: gene PRKACB
Protocol: as §1

[15] = molecular target: ACVR1B (Homo sapiens, UniProt P36896); test: biochemical; parameters: KINOMEscan competition binding panel (Eurofins DiscoverX), single concentration, % inhibition; details: read-out: 7 at 1 µM % inhibition
Protocol: as §1

[16] = molecular target: LTK (Homo sapiens, UniProt P29376); test: biochemical; parameters: KINOMEscan competition binding panel (Eurofins DiscoverX), single concentration, % inhibition; details: read-out: 7 at 1 µM % inhibition
Protocol: as §1

[17] = molecular target: T10, RSK1(Kin.Dom.2-C-terminal) (Homo sapiens, UniProt Q15418); test: biochemical; parameters: KINOMEscan competition binding panel (Eurofins DiscoverX), single concentration, % inhibition; details: read-out: 7 at 1 µM % inhibition
T10 construct: gene RPS6KA1; Kin.Dom.2-C-terminal
Protocol: as §1

[18] = molecular target: CSNK1A1 (Homo sapiens, UniProt P48729); test: biochemical; parameters: KINOMEscan competition binding panel (Eurofins DiscoverX), single concentration, % inhibition; details: read-out: 7 at 1 µM % inhibition
Protocol: as §1

[19] = molecular target: PIKFYVE (Homo sapiens, UniProt Q9Y2I7); test: biochemical; parameters: KINOMEscan competition binding panel (Eurofins DiscoverX), single concentration, % inhibition; details: read-out: 7 at 1 µM % inhibition
Protocol: as §1

[20] = molecular target: RIPK2 (Homo sapiens, UniProt O43353); test: biochemical; parameters: KINOMEscan competition binding panel (Eurofins DiscoverX), single concentration, % inhibition; details: read-out: 7 at 1 µM % inhibition
Protocol: as §1

[21] = molecular target: KIT(D816H) (Homo sapiens, UniProt P10721, D816H); test: biochemical; parameters: KINOMEscan competition binding panel (Eurofins DiscoverX), single concentration, % inhibition; details: read-out: 7 at 1 µM % inhibition
Protocol: as §1

[22] = molecular target: FYN (Homo sapiens, UniProt P06241); test: biochemical; parameters: KINOMEscan competition binding panel (Eurofins DiscoverX), single concentration, % inhibition; details: read-out: 7 at 1 µM % inhibition
Protocol: as §1

[23] = molecular target: EPHB6 (Homo sapiens, UniProt O15197); test: biochemical; parameters: KINOMEscan competition binding panel (Eurofins DiscoverX), single concentration, % inhibition; details: read-out: 7 at 1 µM % inhibition
Protocol: as §1

[24] = molecular target: T11, ABL1(Q252H)-phosphorylated (Homo sapiens, UniProt P00519, Q252H); test: biochemical; parameters: KINOMEscan competition binding panel (Eurofins DiscoverX), single concentration, % inhibition; details: read-out: 7 at 1 µM % inhibition
T11 construct: phosphorylated
Protocol: as §1

T1 sequence (Q13163 whole entry): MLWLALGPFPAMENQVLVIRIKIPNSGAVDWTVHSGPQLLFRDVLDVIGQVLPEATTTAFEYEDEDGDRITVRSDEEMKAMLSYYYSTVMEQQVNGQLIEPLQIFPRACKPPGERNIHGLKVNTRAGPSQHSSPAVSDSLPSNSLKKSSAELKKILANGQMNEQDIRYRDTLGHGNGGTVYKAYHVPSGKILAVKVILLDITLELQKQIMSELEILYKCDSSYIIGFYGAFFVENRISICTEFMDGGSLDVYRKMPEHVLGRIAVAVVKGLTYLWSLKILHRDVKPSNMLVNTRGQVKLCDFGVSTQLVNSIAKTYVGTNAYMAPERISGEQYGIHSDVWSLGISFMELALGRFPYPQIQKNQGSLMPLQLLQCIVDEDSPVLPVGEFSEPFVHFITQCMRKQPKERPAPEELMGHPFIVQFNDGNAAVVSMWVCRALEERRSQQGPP
Sequence of CSNK1A1 (P48729 whole entry): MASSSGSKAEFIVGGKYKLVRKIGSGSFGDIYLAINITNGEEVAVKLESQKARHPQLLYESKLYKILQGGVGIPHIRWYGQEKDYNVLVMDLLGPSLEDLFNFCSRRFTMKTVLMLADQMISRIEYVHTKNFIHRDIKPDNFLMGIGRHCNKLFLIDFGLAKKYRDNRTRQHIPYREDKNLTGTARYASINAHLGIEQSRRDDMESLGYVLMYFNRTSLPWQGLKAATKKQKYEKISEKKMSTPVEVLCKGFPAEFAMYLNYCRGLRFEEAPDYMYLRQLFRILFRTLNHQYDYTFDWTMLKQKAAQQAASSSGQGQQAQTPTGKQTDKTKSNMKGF
T6 sequence (Q02779 whole entry): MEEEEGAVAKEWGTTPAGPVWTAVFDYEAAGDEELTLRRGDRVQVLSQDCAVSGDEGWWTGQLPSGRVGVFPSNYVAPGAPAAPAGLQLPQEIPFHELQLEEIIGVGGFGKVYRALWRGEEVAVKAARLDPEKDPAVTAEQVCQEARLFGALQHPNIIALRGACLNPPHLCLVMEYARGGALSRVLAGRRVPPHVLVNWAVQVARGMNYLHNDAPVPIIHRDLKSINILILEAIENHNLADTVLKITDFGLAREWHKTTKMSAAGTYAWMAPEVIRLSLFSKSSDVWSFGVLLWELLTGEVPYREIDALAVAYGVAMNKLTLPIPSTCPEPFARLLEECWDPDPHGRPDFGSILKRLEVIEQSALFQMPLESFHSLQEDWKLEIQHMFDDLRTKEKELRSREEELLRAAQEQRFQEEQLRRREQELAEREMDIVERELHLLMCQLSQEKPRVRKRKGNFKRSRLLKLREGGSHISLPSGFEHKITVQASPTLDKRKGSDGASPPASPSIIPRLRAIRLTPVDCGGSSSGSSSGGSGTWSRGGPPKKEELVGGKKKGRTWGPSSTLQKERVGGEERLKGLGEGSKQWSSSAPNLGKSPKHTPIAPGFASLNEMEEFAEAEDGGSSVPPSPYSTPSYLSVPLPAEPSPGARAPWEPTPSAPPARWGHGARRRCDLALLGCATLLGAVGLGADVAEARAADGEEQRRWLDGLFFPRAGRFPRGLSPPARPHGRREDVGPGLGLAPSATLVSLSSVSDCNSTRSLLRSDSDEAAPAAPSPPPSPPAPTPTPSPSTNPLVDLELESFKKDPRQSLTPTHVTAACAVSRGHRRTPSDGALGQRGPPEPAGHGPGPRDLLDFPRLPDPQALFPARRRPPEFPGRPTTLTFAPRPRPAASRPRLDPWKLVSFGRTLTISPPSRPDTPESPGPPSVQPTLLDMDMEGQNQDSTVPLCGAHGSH
T4 sequence (P11802 whole entry): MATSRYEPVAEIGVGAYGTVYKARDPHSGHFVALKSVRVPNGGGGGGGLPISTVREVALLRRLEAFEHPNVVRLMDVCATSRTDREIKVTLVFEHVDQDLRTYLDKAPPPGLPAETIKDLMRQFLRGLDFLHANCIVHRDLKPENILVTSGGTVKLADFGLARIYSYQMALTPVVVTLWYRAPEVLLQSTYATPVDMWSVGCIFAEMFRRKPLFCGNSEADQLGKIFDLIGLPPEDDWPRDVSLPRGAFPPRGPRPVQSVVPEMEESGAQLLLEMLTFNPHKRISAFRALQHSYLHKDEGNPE
T4 sequence (P24385 whole entry partner): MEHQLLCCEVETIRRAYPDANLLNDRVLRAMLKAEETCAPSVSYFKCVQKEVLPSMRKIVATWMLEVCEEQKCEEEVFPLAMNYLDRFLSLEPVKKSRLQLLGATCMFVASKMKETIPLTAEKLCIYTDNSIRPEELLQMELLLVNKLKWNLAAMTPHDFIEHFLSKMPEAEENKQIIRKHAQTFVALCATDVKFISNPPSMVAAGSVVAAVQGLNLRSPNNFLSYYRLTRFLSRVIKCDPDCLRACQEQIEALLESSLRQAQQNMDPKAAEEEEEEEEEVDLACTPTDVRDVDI
Sequence of PIKFYVE (Q9Y2I7 whole entry): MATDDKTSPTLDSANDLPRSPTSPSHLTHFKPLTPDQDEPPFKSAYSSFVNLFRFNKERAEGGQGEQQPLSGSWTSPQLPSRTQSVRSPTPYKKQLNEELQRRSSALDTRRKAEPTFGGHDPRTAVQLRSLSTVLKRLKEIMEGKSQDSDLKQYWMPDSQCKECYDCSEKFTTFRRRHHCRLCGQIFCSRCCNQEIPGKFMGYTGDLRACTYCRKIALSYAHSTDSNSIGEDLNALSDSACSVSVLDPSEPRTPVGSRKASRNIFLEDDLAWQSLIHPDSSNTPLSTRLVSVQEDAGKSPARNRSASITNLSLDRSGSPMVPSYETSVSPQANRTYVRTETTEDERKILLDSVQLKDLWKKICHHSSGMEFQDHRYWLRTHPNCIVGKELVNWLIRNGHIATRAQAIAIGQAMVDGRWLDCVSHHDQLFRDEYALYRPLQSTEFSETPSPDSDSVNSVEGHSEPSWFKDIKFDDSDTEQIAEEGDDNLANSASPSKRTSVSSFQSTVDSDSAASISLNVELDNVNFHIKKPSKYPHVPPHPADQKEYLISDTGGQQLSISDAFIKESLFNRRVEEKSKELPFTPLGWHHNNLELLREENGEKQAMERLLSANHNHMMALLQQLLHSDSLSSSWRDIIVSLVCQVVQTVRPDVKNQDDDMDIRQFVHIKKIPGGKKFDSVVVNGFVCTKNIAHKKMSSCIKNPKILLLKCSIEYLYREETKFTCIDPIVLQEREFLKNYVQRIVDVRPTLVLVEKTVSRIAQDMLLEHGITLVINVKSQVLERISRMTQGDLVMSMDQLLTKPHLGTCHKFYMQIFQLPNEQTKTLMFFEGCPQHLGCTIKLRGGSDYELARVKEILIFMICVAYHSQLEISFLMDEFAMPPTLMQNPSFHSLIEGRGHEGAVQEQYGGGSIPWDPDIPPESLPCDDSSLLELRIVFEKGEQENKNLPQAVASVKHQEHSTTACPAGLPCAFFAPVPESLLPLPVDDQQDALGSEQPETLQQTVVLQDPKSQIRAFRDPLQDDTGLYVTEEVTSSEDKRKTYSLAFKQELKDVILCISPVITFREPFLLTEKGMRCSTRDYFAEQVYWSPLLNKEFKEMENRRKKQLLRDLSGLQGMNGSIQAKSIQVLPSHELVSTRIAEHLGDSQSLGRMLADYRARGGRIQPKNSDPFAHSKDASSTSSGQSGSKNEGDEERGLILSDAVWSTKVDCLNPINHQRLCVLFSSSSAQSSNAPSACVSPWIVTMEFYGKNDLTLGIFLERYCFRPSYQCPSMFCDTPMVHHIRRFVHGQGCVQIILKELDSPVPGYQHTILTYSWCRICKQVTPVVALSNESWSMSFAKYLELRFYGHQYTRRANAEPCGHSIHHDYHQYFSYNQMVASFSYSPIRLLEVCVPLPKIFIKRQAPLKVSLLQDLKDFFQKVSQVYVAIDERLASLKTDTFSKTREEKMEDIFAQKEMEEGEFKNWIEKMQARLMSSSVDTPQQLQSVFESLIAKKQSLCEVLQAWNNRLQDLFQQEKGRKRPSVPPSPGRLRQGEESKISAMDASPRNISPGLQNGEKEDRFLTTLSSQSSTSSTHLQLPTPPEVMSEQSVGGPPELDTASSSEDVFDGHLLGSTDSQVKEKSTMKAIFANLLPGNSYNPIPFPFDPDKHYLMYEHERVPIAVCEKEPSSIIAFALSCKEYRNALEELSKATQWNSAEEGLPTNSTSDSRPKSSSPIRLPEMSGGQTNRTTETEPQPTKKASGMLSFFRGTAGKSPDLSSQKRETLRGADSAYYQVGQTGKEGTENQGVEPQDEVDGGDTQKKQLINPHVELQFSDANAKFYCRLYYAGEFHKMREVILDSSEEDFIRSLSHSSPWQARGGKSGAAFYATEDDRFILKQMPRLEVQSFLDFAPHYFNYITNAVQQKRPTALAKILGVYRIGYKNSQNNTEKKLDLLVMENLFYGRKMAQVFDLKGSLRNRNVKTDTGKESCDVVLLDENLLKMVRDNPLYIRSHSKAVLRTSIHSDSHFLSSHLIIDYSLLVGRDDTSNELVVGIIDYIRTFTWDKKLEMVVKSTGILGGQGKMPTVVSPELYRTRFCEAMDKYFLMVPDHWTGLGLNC
Sequence of ACVR1B (P36896 whole entry): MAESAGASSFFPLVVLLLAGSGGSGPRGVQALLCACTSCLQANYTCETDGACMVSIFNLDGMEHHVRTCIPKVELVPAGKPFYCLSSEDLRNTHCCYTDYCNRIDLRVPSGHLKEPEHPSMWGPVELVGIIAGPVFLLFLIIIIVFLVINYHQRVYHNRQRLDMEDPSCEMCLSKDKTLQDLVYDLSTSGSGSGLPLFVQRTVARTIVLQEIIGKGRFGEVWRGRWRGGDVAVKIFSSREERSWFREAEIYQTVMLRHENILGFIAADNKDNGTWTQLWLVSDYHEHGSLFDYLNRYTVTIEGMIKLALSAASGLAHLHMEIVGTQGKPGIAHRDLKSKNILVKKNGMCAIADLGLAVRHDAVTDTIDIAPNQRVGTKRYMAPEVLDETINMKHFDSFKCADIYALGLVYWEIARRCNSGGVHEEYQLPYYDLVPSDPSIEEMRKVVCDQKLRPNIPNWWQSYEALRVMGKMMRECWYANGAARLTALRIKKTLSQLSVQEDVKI

Q: For CNS(=O)(=O)c1ccc(N(C)C)c(Nc2ncnc3cc(OC)c(OC)cc23)c1 [compound 7, 3-((6,7-dimethoxyquinazolin-4-yl)amino)-4-(dimethylamino)-N-methylbenzenesulfonamide], which inhibition at 1 µM [1] is on record?
A: 100%

Q: And the inhibition at 1 µM [2]?
A: 93%

Q: And the inhibition at 1 µM [3]?
A: 0%

Q: What about the inhibition at 1 µM [4] of the same compound?
A: 20%

Q: And the inhibition at 1 µM [5]?
A: 13%

Q: What about the inhibition at 1 µM [6] of the same compound?
A: 9%

Q: What about the inhibition at 1 µM [7] of the same compound?
A: 6%

Q: And the inhibition at 1 µM [8]?
A: 15%

Q: And the inhibition at 1 µM [9]?
A: 5%

Q: What about the inhibition at 1 µM [10] of the same compound?
A: 0%

Q: And the inhibition at 1 µM [11]?
A: 4%

Q: And the inhibition at 1 µM [12]?
A: 0%

Q: What about the inhibition at 1 µM [13] of the same compound?
A: 42%

Q: What about the inhibition at 1 µM [14] of the same compound?
A: 0%

Q: What about the inhibition at 1 µM [15] of the same compound?
A: 0%

Q: What about the inhibition at 1 µM [16] of the same compound?
A: 44%

Q: What about the inhibition at 1 µM [17] of the same compound?
A: 0%

Q: What about the inhibition at 1 µM [18] of the same compound?
A: 0%

Q: And the inhibition at 1 µM [19]?
A: 7%

Q: And the inhibition at 1 µM [20]?
A: 28%

Q: And the inhibition at 1 µM [21]?
A: 100%

Q: What about the inhibition at 1 µM [22] of the same compound?
A: 0%

Q: What about the inhibition at 1 µM [23] of the same compound?
A: 15%

Q: What about the inhibition at 1 µM [24] of the same compound?
A: 79%

Q: Which inhibition at 1 µM [1] does the source give for CNS(=O)(=O)c1ccc(N(C)C)c(Nc2nc(C)nc3cc(OC)c(OC)cc23)c1 [compound 15, 3-((6,7-dimethoxy-2-methylquinazolin-4-yl)amino)-4-(dimethylamino)-N-methylbenzenesulfonamide] here?
A: 92%
